Reference: ChEMBL document CHEMBL5143550, “Thiol- and Disulfide-Containing Vancomycin Derivatives Against Bacterial Resistance and Biofilm Formation” (2021)
In brackets after ≈: the same amount, converted by molar mass.

What was measured:
Format in all cases: functional
Staphylococcus aureus [1] = assay: Antibacterial activity against Staphylococcus aureus ATCC 25923 assessed as inhibition of bacterial growth by standard broth microdilution susceptibility method
Staphylococcus aureus [2] = assay: Antibacterial activity against methicillin-resistant Staphylococcus aureus ATCC 43300 assessed as inhibition of bacterial growth by standard broth microdilution susceptibility method
Staphylococcus aureus [3] = assay: Antibacterial activity against vancomycin-intermediate Staphylococcus aureus ATCC NRS1 assessed as inhibition of bacterial growth by standard broth microdilution susceptibility method
Staphylococcus aureus [4] = assay: Antibacterial activity against heterogenous vancomycin-intermediate Staphylococcus aureus ATCC NRS24 assessed as inhibition of bacterial growth by standard broth microdilution susceptibility method
Enterococcus faecium [5] = assay: Antibacterial activity against VanA-resistant Enterococcus faecium MMX0485 assessed as inhibition of bacterial growth by standard broth microdilution susceptibility method
Enterococcus faecalis [6] = assay: Antibacterial activity against VanB-resistant Enterococcus faecalis ATCC 51299 assessed as inhibition of bacterial growth by standard broth microdilution susceptibility method
Enterococcus gallinarum [7] = assay: Antibacterial activity against VanC-resistant Enterococcus gallinarum ATCC 700221 assessed as inhibition of bacterial growth by standard broth microdilution susceptibility method
Streptococcus pneumoniae = assay: Antibacterial activity against […] assessed as inhibition of bacterial growth by standard broth microdilution susceptibility method
Clostridioides difficile = assay: Antibacterial activity against Clostridium difficile ATCC 43255 assessed as inhibition of bacterial growth by standard broth microdilution susceptibility method
Moraxella catarrhalis = assay: Antibacterial activity against Moraxella catarrhalis ATCC 8193 assessed as inhibition of bacterial growth by standard broth microdilution susceptibility method
Enterococcus faecalis [8] = assay: Antibiofilm activity against VanB-resistant Enterococcus faecalis ATCC 51299 assessed as inhibition of biofilm formation in BHIG medium incubated for 24 hrs by resazurin assay
Enterococcus faecalis [9] = assay: Antibiofilm activity against VanB-resistant Enterococcus faecalis ATCC 51299 assessed as inhibition of biofilm formation by measuring decrease in RFU in BHIG medium incubated for 24 hrs by resazurin assay
Enterococcus faecalis [10] = assay: Antibacterial activity against VanB-resistant Enterococcus faecalis ATCC 51299 assessed as inhibition of colony formation in BHIG medium incubated for 24 hrs by resazurin assay
Enterococcus faecalis [11] = assay: Antibacterial activity against VanB-resistant Enterococcus faecalis ATCC 51299 assessed as inhibition of bacterial growth in BHIG medium incubated for 24 hrs by resazurin assay
Staphylococcus aureus [12] = assay: Potency index, ratio of vancomycin MIC to test compound MIC for antibacterial activity against vancomycin-intermediate Staphylococcus aureus ATCC NRS1 assessed as inhibition of bacterial growth by standard broth microdilution susceptibility method
Staphylococcus aureus [13] = assay: Potency index, ratio of vancomycin MIC to test compound MIC for antibacterial activity against heterogenous vancomycin-intermediate Staphylococcus aureus ATCC NRS24 assessed as inhibition of bacterial growth by standard broth microdilution susceptibility method
Enterococcus faecium [14] = assay: Potency index, ratio of vancomycin MIC to test compound MIC for antibacterial activity against VanA-resistant Enterococcus faecium MMX0485 assessed as inhibition of bacterial growth by standard broth microdilution susceptibility method
Enterococcus faecalis [15] = assay: Potency index, ratio of vancomycin MIC to test compound MIC for antibacterial activity against VanB-resistant Enterococcus faecalis ATCC 51299 assessed as inhibition of bacterial growth by standard broth microdilution susceptibility method
Enterococcus gallinarum [16] = assay: Potency index, ratio of vancomycin MIC to test compound MIC for antibacterial activity against VanC-resistant Enterococcus gallinarum ATCC 700221 assessed as inhibition of bacterial growth by standard broth microdilution susceptibility method

SMILES | MIC (Staphylococcus aureus [1]) [µg/mL] | MIC (Staphylococcus aureus [2]) [µg/mL] | MIC (Staphylococcus aureus [3]) [µg/mL] | MIC (Staphylococcus aureus [4]) [µg/mL] | MIC (Enterococcus faecium [5]) [µg/mL] | MIC (Enterococcus faecalis [6]) [µg/mL] | MIC (Enterococcus gallinarum [7]) [µg/mL] | MIC (Streptococcus pneumoniae) [µg/mL] | MIC (Clostridioides difficile) [µg/mL] | MIC (Moraxella catarrhalis) [µg/mL] | MBIC (Enterococcus faecalis [8]) [µg/mL] | inhibition (INH) (Enterococcus faecalis [9]) [%] | Activity (Enterococcus faecalis [10]) [µg/mL] | inhibition (INH) (Enterococcus faecalis [11]) [%] | Ratio (Staphylococcus aureus [12]) | Ratio (Staphylococcus aureus [13]) | Ratio (Enterococcus faecium [14]) | Ratio (Enterococcus faecalis [15]) | Ratio (Enterococcus gallinarum [16])
CN[C@H](CC(C)C)C(=O)N[C@H]1C(=O)N[C@@H](CC(N)=O)C(=O)N[C@H]2C(=O)N[C@H]3C(=O)N[C@H](C(=O)N[C@H](C(=O)NCCSSCCNC(=O)CCS)c4cc(O)cc(O)c4-c4cc3ccc4O)[C@H](O)c3ccc(c(Cl)c3)Oc3cc2cc(c3O[C@@H]2O[C@H](CO)[C@@H](O)[C@H](O)[C@H]2O[C@H]2C[C@](C)(N)[C@H](O)[C@H](C)O2)Oc2ccc(cc2Cl)[C@H]1O | 0.5 (≈ 0.299 µM) | 0.5 (≈ 0.299 µM) | 1 (≈ 0.598 µM) | 1 (≈ 0.598 µM) | 8 (≈ 4.79 µM) | 2 (≈ 1.2 µM) | 4 (≈ 2.39 µM) | 0.25 (≈ 0.15 µM) | 1 (≈ 0.598 µM) | 2 (≈ 1.2 µM) | 8 | 97 | 8 | 100 |  |  |  |  | 
CCCCCCSSCCNC(=O)[C@H]1NC(=O)[C@H]2NC(=O)[C@H](NC(=O)[C@@H]3NC(=O)[C@H](CC(N)=O)NC(=O)[C@H](NC(=O)[C@@H](CC(C)C)NC)[C@H](O)c4ccc(c(Cl)c4)Oc4cc3cc(c4O[C@@H]3O[C@H](CO)[C@@H](O)[C@H](O)[C@H]3O[C@H]3C[C@](C)(N)[C@H](O)[C@H](C)O3)Oc3ccc(cc3Cl)[C@H]2O)c2ccc(O)c(c2)-c2c(O)cc(O)cc21 | 0.12 (≈ 0.0739 µM) | 0.12 (≈ 0.0739 µM) | 0.5 (≈ 0.308 µM) | 0.5 (≈ 0.308 µM) | 16 (≈ 9.85 µM) | 0.25 (≈ 0.154 µM) | 4 (≈ 2.46 µM) | 0.06 (≈ 0.0369 µM) | 0.5 (≈ 0.308 µM) | 2 (≈ 1.23 µM) | 2 | 100 | 2 | 100 | 16 | 16 | 16 | 16 | 
CN[C@H](CC(C)C)C(=O)N[C@H]1C(=O)N[C@@H](CC(N)=O)C(=O)N[C@H]2C(=O)N[C@H]3C(=O)N[C@H](C(=O)N[C@H](C(=O)NCCSSCC[N+](C)(C)C)c4cc(O)cc(O)c4-c4cc3ccc4O)[C@H](O)c3ccc(c(Cl)c3)Oc3cc2cc(c3O[C@@H]2O[C@H](CO)[C@@H](O)[C@H](O)[C@H]2O[C@H]2C[C@](C)(N)[C@H](O)[C@H](C)O2)Oc2ccc(cc2Cl)[C@H]1O | 1 | 0.5 | 0.5 | > 32 | 32 | 16 | 4 | 0.25 | ≤ 0.015 | 2 | 16 | 91 | 16 | 100 |  |  | 8 | 8 | 8
CN[C@H](CC(C)C)C(=O)N[C@H]1C(=O)N[C@@H](CC(N)=O)C(=O)N[C@H]2C(=O)N[C@H]3C(=O)N[C@H](C(=O)N[C@H](C(=O)NCCCCCCCCS)c4cc(O)cc(O)c4-c4cc3ccc4O)[C@H](O)c3ccc(c(Cl)c3)Oc3cc2cc(c3O[C@@H]2O[C@H](CO)[C@@H](O)[C@H](O)[C@H]2O[C@H]2C[C@](C)(N)[C@H](O)[C@H](C)O2)Oc2ccc(cc2Cl)[C@H]1O | 4 (≈ 2.51 µM) | 4 (≈ 2.51 µM) | 2 (≈ 1.26 µM) | 2 (≈ 1.26 µM) | 2 (≈ 1.26 µM) | 8 (≈ 5.02 µM) | 8 (≈ 5.02 µM) | 0.5 (≈ 0.314 µM) | 4 (≈ 2.51 µM) | 8 (≈ 5.02 µM) | 8 | 98 | 8 | 100 |  |  |  |  | 
